Assay results as given in patent publication US20110002843A1, “METHOD OF DETECTING MYOCARDIAL DYSFUNCTION IN PATIENTS HAVING A HISTORY OF ASTHMA OR BRONCHOSPASM” (priority 2005, published 2011).
Entries after “also recorded” stand apart in the source; their conditions may differ.

Assay: Pulmonary responses and safety in human subjects with mild, intermittent asthma (single-blind and double-blind parts)
Format: in vivo
Experimental: Methodology: The study consisted of 2 parts, a Single-Blind Part and a Double-Blind Part. The dose escalating, Single-Blind Part enrolled subjects with mild, intermittent asthma and consisted of 3 sequentially enrolled dosing cohorts with 8 subjects per cohort, such that Dosing Cohorts 1, 2 and 3 received binodenoson target doses of 0.5 μg/kg, 1.0 μg/kg and 1.5 μg/kg, respectively. All 8 subjects in a dosing cohort must have completed dosing at the assigned dose and a medical review of each cohort must have been acceptable before enrollment in the next cohort began. The Double-Blind Part was initiated only if the medical review of all safety data from the Single-Blind Part was acceptable. In the Double Blind Part, subjects with mild, intermittent asthma were randomly assigned in a 2:1 ratio to receive either binodenoson 1.5 μg/kg (n=40 planned) or placebo control (n=20 planned).
Both study parts were comprised of Screening, Treatment and Follow-Up Visits. The Screening Visit occurred 7 to 14 days before the Treatment Visit and consisted of a physical examination, medical history and application of inclusion and exclusion criteria. Subjects were instructed to measure peak expiratory flow (PEF) and asthma symptoms during a period of at least 7 days prior to the Treatment Visit. Subjects were to continue to meet all Screening eligibility criteria at the Treatment Visit and forced expiratory volume in 1 second (FEV1) was to remain within 80% of predicted for subjects to be eligible for dosing. All subjects enrolled in the Single-Blind Part and subjects randomized to receive binodenoson in the Double-Blind Part received 3 intravenous (IV) injections during the Treatment Visit: (1) placebo; (2) a low, challenge binodenoson dose to detect potential hypersensitivity reactions; and (3) an assigned binodenoson test dose. Subjects randomized to receive placebo in the Double Blind Part received 3 placebo injections. The Follow-Up Visit occurred 2 to 4 days following the Treatment Visit.
Eligible subjects were males or non-pregnant, nonlactating females ≧18 years of age weighing <350 pounds with a medical history of mild, intermittent asthma (as defined in the “Guidelines for the Diagnosis and Management of Asthma” prepared by the National Institutes of Health [NIH]) within 6 months of Screening.
Subjects were not eligible for the study if they had resting sitting systolic blood pressure (SBP)<100 or >140 mmHg, diastolic blood pressure (DBP)<60 or >90 mmHg, pulse rate >95 beats per minute (bpm), or a lower limit FEV1 at rest of <80% of the predicted value at Screening.
Dose and Mode of Administration: A stock solution of binodenoson (25 μg/mL) was administered as a bolus injection over 30 seconds (0.1 μg/kg=0.004 mL/kg of stock solution, 0.5 μg/kg=0.02 mL/kg of stock solution, 1.0 μg/kg=0.04 mL/kg of stock solution and 1.5 μg/kg=0.06 mL/kg of stock solution).
Duration of Treatment: Each subject received three 30-second bolus IV injections separated by ≧90 minutes in both the Single Blind and Double-Blind Parts of the study.
Criteria for Evaluation: The primary safety endpoint was clinically significant bronchoconstriction, defined as a ≧20% decrease in FEV1 from the predrug baseline following binodenoson administration. Other safety assessments included need for rescue medication, regular measurements of pulmonary function (FEV1 [% predicted], forced vital capacity [FVC] and forced expiratory flow during the middle half of the FVC [FEF25%-75%]), vital signs, pulse oximetry, physical examination findings, electrocardiogram (ECG) results, clinical laboratory results and adverse events.
Statistical Methods: All data collected in the study were summarized by treatment (placebo; 0.1 μg/kg binodenoson challenge; or 0.5, 1.0, or 1.5 μg/kg binodenoson) and study Part (Single-Blind or Double-Blind with univariate summaries). Continuous variables were summarized with descriptive statistics (n, mean, median, standard deviation [SD] and minimum and maximum). […]

[1] = double-blind, Binodenoson Group, second injection 0.1 μg/kg iv bolus, 15 minutes
[2] = double-blind, Binodenoson Group, second injection 0.1 μg/kg iv bolus, 90 minutes
[3] = double-blind, binodenoson 1.5 μg/kg group
[4] = double-blind, third injection 1.5 μg/kg
[5] = double-blind, third injection 1.5 μg/kg iv bolus, 5 min
[6] = double-blind, third injection 1.5 μg/kg iv bolus, 15 min
[7] = double-blind, third injection 1.5 μg/kg iv bolus, 45 min
[8] = double-blind, third injection 1.5 μg/kg iv bolus, 90 min
[9] = single-blind, Cohort 1, second injection 0.1 μg/kg iv bolus, 15 minutes
[10] = single-blind, Cohort 1, second injection 0.1 μg/kg iv bolus, 90 minutes
[11] = single-blind, Cohort 2, second injection 0.1 μg/kg iv bolus, 15 minutes
[12] = single-blind, Cohort 2, second injection 0.1 μg/kg iv bolus, 90 minutes
[13] = single-blind, Cohort 3, second injection 0.1 μg/kg iv bolus, 15 minutes
[14] = single-blind, Cohort 3, second injection 0.1 μg/kg iv bolus, 90 minutes

SMILES: Nc1nc(N/N=C/C2CCCCC2)nc2c1ncn2[C@@H]1O[C@H](CO)[C@@H](O)[C@H]1O (stereo in doubt) [Binodenoson, 2-{2-[(Cyclohexyl)methylene]hydrazino}adenosine]
- changes from baseline in mean FEV1, FEV1 (% predicted), FEF25%-75%, FVC (after any injection, single- or double-blind part): No clinically significant changes from baseline
- safety and tolerability (doses up to 1.5 μg/kg): safe and well tolerated
- FEF25%-75% Mean % Change from Baseline (SD) [1]: 1.531 (5.261) %
- FEF25%-75% Mean (SD) [1]: 2.946 (0.973)
- FEV1 (% predicted) Mean % Change from Baseline (SD) [1]: 0.3 (2.4) %
- FEV1 (% predicted) Mean (SD) [1]: 88.3 (6.9) % predicted
- FEV1 (L) Mean % Change from Baseline (SD) [1]: 0.421 (2.525) %
- FEV1 (L) Mean (SD) [1]: 3.170 (0.590) L
- FVC Mean % Change from Baseline (SD) [1]: 0.055 (2.683) %
- FVC Mean (SD) [1]: 4.051 (0.824)
- FEF25%-75% Mean % Change from Baseline (SD) [2]: 1.181 (6.739) %
- FEF25%-75% Mean (SD) [2]: 2.965 (1.071)
- FEV1 (% predicted) Mean % Change from Baseline (SD) [2]: −0.1 (2.9) %
- FEV1 (% predicted) Mean (SD) [2]: 87.9 (7.7) % predicted
- FEV1 (L) Mean % Change from Baseline (SD) [2]: −0.042 (3.348) %
- FEV1 (L) Mean (SD) [2]: 3.152 (0.574) L
- FVC Mean % Change from Baseline (SD) [2]: −0.457 (3.163) %
- FVC Mean (SD) [2]: 4.021 (0.778)
- abdominal discomfort, treatment emergent AE [3]: 5%
- dizziness, treatment emergent AE [3]: 18%
- flushing, treatment emergent AE [3]: 15%
- headache, treatment emergent AE [3]: 5%
- nausea, treatment emergent AE [3]: 8%
- sinus tachycardia, treatment emergent AE [3]: 8%
- tachycardia, treatment emergent AE [3]: 31%
- changes from baseline in mean FEV1, FEV1 (% predicted), FEF25%-75%, FVC (double-blind, binodenoson 1.5 μg/kg group, after first or second injections): no clinically significant changes from baseline
- subjects who experienced AEs (double-blind, binodenoson 1.5 μg/kg subjects (placebo 19%)): 69%
- changes from baseline in mean FEV1, FEV1 (% predicted), FEF25%-75%, FVC [4]: No clinically significant changes from baseline
- treatment differences in pulmonary function versus placebo [4]: no statistically significant treatment differences
- FEF25%-75% Mean % Change from Baseline (SD) [5]: −0.877 (6.999) %
- FEF25%-75% Mean (SD) [5]: 2.913 (0.981)
- FEV1 (% predicted) Mean % Change from Baseline (SD) [5]: 0.1 (3.3) %
- FEV1 (% predicted) Mean (SD) [5]: 88.0 (8.7) % predicted
- FEV1 Mean % Change from Baseline (SD) [5]: 0.028 (3.849) %
- FEV1 Mean (SD) [5]: 3.153 (0.589)
- FVC Mean % Change from Baseline (SD) [5]: 0.186 (4.299) %
- FVC Mean (SD) [5]: 4.022 (0.746)
- FEF25%-75% Mean % Change from Baseline (SD) [6]: −0.477 (6.555) %
- FEF25%-75% Mean (SD) [6]: 2.930 (1.012)
- FEV1 (% predicted) Mean % Change from Baseline (SD) [6]: −0.3 (2.6) %
- FEV1 (% predicted) Mean (SD) [6]: 87.6 (8.5) % predicted
- FEV1 Mean % Change from Baseline (SD) [6]: −0.405 (3.079) %
- FEV1 Mean (SD) [6]: 3.137 (0.574)
- FVC Mean % Change from Baseline (SD) [6]: −0.309 (3.272) %
- FVC Mean (SD) [6]: 4.004 (0.755)
- FEF25%-75% Mean % Change from Baseline (SD) [7]: 0.388 (7.548) %
- FEF25%-75% Mean (SD) [7]: 2.940 (0.959)
- FEV1 (% predicted) Mean % Change from Baseline (SD) [7]: 0.1 (3.3) %
- FEV1 (% predicted) Mean (SD) [7]: 88.0 (8.3) % predicted
- FEV1 Mean % Change from Baseline (SD) [7]: 0.056 (3.888) %
- FEV1 Mean (SD) [7]: 3.156 (0.598)
- FVC Mean % Change from Baseline (SD) [7]: −0.133 (4.369) %
- FVC Mean (SD) [7]: 4.015 (0.780)
- FEF25%-75% Mean % Change from Baseline (SD) [8]: −0.335 (8.198) %
- FEF25%-75% Mean (SD) [8]: 2.923 (0.963)
- FEV1 (% predicted) Mean % Change from Baseline (SD) [8]: 1.1 (3.2) %
- FEV1 (% predicted) Mean (SD) [8]: 89.0 (7.7) % predicted
- FEV1 Mean % Change from Baseline (SD) [8]: 1.228 (3.835) %
- FEV1 Mean (SD) [8]: 3.191 (0.588)
- FVC Mean % Change from Baseline (SD) [8]: 1.755 (3.720) %
- FVC Mean (SD) [8]: 4.093 (0.800)
- changes in SBP, pulse rate and DBP (double-blind, magnitude greater in binodenoson than placebo group): Transient increases in SBP and pulse rate and decreases in DBP
- need for rescue medication (single- and double-blind parts): No subject required rescue medication
- clinically significant bronchoconstriction (≧20% decrease in FEV1 from predrug baseline) (single- and double-blind parts, doses up to 1.5 μg/kg): No bronchoconstriction events; also recorded: did not induce bronchoconstriction
- FEF25%-75% Mean % Change from Baseline (SD) [9]: 0.526 (7.433) %
- FEF25%-75% Mean (SD) [9]: 2.994 (0.911)
- FEV1 (% predicted) Mean % Change from Baseline (SD) [9]: 0.1 (3.6) %
- FEV1 (% predicted) Mean (SD) [9]: 90.5 (12.1) % predicted
- FEV1 (L) Mean % Change from Baseline (SD) [9]: 0.136 (3.922) %
- FEV1 (L) Mean (SD) [9]: 3.908 (0.824) L
- FVC Mean % Change from Baseline (SD) [9]: −0.003 (2.480) %
- FVC Mean (SD) [9]: 5.516 (1.130)
- FEF25%-75% Mean % Change from Baseline (SD) [10]: 9.136 (9.019) %
- FEF25%-75% Mean (SD) [10]: 3.241 (0.946)
- FEV1 (% predicted) Mean % Change from Baseline (SD) [10]: 4.5 (3.5) %
- FEV1 (% predicted) Mean (SD) [10]: 94.9 (12.3) % predicted
- FEV1 (L) Mean % Change from Baseline (SD) [10]: 5.043 (4.097) %
- FEV1 (L) Mean (SD) [10]: 4.101 (0.867) L
- FVC Mean % Change from Baseline (SD) [10]: 2.379 (3.221) %
- FVC Mean (SD) [10]: 5.654 (1.188)
- FEF25%-75% Mean % Change from Baseline (SD) [11]: 0.724 (4.318) %
- FEF25%-75% Mean (SD) [11]: 3.665 (1.555)
- FEV1 (% predicted) Mean % Change from Baseline (SD) [11]: 1.4 (2.5) %
- FEV1 (% predicted) Mean (SD) [11]: 94.8 (13.2) % predicted
- FEV1 (L) Mean % Change from Baseline (SD) [11]: 1.292 (2.662) %
- FEV1 (L) Mean (SD) [11]: 3.944 (0.895) L
- FVC Mean % Change from Baseline (SD) [11]: 2.129 (3.295) %
- FVC Mean (SD) [11]: 5.120 (1.195)
- FEF25%-75% Mean % Change from Baseline (SD) [12]: −2.574 (12.173) %
- FEF25%-75% Mean (SD) [12]: 3.471 (1.285)
- FEV1 (% predicted) Mean % Change from Baseline (SD) [12]: 0.3 (4.2) %
- FEV1 (% predicted) Mean (SD) [12]: 93.6 (13.0) % predicted
- FEV1 (L) Mean % Change from Baseline (SD) [12]: 0.165 (4.367) %
- FEV1 (L) Mean (SD) [12]: 3.895 (0.854) L
- FVC Mean % Change from Baseline (SD) [12]: 1.624 (3.599) %
- FVC Mean (SD) [12]: 5.100 (1.219)
- FEF25%-75% Mean % Change from Baseline (SD) [13]: 0.635 (6.670) %
- FEF25%-75% Mean (SD) [13]: 2.758 (0.695)
- FEV1 (% predicted) Mean % Change from Baseline (SD) [13]: 0.1 (2.7) %
- FEV1 (% predicted) Mean (SD) [13]: 90.5 (8.5) % predicted
- FEV1 (L) Mean % Change from Baseline (SD) [13]: 0.145 (2.786) %
- FEV1 (L) Mean (SD) [13]: 3.325 (0.690) L
- FVC Mean % Change from Baseline (SD) [13]: 0.480 (2.084) %
- FVC Mean (SD) [13]: 4.364 (0.876)
- FEF25%-75% Mean % Change from Baseline (SD) [14]: 4.324 (8.478) %
- FEF25%-75% Mean (SD) [14]: 2.836 (0.636)
- FEV1 (% predicted) Mean % Change from Baseline (SD) [14]: 0.9 (2.0) %
- FEV1 (% predicted) Mean (SD) [14]: 91.3 (7.3) % predicted
